For one assay, the system named is HCC1937. The assay can be described thus: Drug combination study by MTT assay (combination index, CompuSyn). Type of assay: cell-based, human. On the procedure: Cell Proliferation Assay. Cell proliferation was measured by MTT (3-(4,5-dimethylthiazol-2-yl)-2,5-diphenyltetrazolium bromide; Sigma) reduction. To test the cell proliferation rate, 500-1×10^4 cells/well were seeded in a 96-well plate in a total volume of 100 μL in triplicate in each experiment. The next day, cells were treated with indicated concentrations of drugs. Five days later, 20 μL of MTT substrate (2 mg/mL) was added to each well and incubated with cells for 3 hr. Then the culture medium was removed, and 100 μL of dimethyl sulfoxide was added. Plates were read at 490 nm and 650 nm (background) in a microplate reader (Molecular Devices). After subtraction of background, the cell viability was calculated as fold change relative to control cells. The OD values were analyzed with Graphpad Prism 6.0 software. Each value is relative to the value in the cells treated with vehicle control. Results are shown as mean±SEM from three independent experiments.
Drug Combination Studies. […] CI<1 indicated synergism, and CI=1 and CI>1 indicated additive and antagonism, respectively.
(In general: Tetrazolium dyes change colour on reduction, which living cells bring about.)

Another assay relates to MCF-10A cells. The assay can be described thus: Colony formation assay in MCF-10A knockdown cell lines. In kind it is cell-based, human. On the procedure:
FIGS. 3A-C. Loss of PTEN Reverses HRD and Confers PARP Inhibitor Resistance to BRCA1-Depleted Cells through Over-expression of TTK. (A) Modified HR repair assay was performed in MCF-10A cells by transfecting cells with DRGFP DSB substrate plasmid and I-SceI plasmid through electroporation, followed by analysis of GFP-positive cells by flow cytometry 48 to 72 hours later. Each value is relative to the percentage of GFP-positive cells in I-SceI-transfected control cells. Results are show as mean±SD from three independent experiments. Student's t-test was performed from results of three independent experiments. (B) Cells were seeded at a very low density and treated with indicated concentrations of olaparib for 10 to 15 days to allow colony formation. The rate of cell survival in response to olaparib was determined by colony formation assay. Each value was relative to control cells without treatment and represents the mean±SD from three independent experiments. […] (C) Quantitative analysis of HR repair assay in cells transfected with TTK plasmids or the indicated siRNAs. Each value is relative to the percentage of GFP-positive cells in I-SceI-transfected control cells. Results are shown as mean±SD from three independent experiments. […] BRCA1 SMARTpool siRNA was used as a positive control.
FIGS. 11A-B. The HRD Gene Signature Predicts HR-deficiency and Sensitivity to PARP Inhibitors in Cancer Cells. (A) Cells were seeded in a very low density and treated with indicated concentrations of PARP inhibitor olaparib for 10-15 days to allow colony formation. The rate of cell survival was determined by colony-formation assay. Colonies were stained with 0.25% crystal violet/25% methanol and counted both manually and digitally using ImageJ software. […]
Colony Forming Assay. […] Colonies were counted manually (colonies containing 50 or more cells were counted) or digitally using ImageJ software with customized parameters optimized based on three preliminary manual counts or blindly chosen. […]

The test system of assay [1] is cancer cell lines with and without the HRD gene signature. In words: Colony formation and MTT assay in cancer cell lines with intact or defective HR. In kind it is cell-based, human. The note with it: prostate, renal, lung, ovarian, breast cancer lines; colony formation, MTT. On the procedure:
FIGS. 2A-D. The HRD Gene Signature Predicts Sensitivity to PARP Inhibitors in Cancer Cells. (A) Cell lines with intact HR (I) and defective HR (D) were selected for five cancer types as follows: prostate cancer: PC-3 (D) and DU-145 (I); renal cancer: ACHN (D) and 7860-O (I); lung cancer: H266 (D) and H522 (I); ovarian cancer: OVCAR-3 (D) and OVCAR-8 (I); and breast cancer: MCF7 (D), MDA-MB-231 (I), and HCC1937 […]. Modified HR repair assay was performed by transfecting cells with DRGFP DSB substrate plasmid and I-SceI plasmid through electroporation at 270V, 975uF using a BioRad genepulsar II. Flow cytometry analysis was performed 48 to 72 hours later to detect GFP-positive cells. […] (B-D) Colony formation assay was performed with the indicated concentrations of olaparib (B) or rucaparib (C), or (D) cell lines were seeded in 96-well plates, treated with olaparib at the indicated concentrations for 5 days, and then analyzed by MTT assay. […]
Cell Proliferation Assay. Cell proliferation was measured by MTT (3-(4,5-dimethylthiazol-2-yl)-2,5-diphenyltetrazolium bromide; Sigma) reduction. […] Plates were read at 490 nm and 650 nm (background) in a microplate reader (Molecular Devices). After subtraction of background, the cell viability was calculated as fold change relative to control cells. The OD values were analyzed with Graphpad Prism 6.0 software. […]

A further assay relates to BRCA mutation carriers. Particulars: phase I, oral monotherapy; cited from earlier work.
The subject of assay [2] is breast cancer patients with BRCA1/2 mutations. The note with it: phase II; cited from earlier work.
Assay [3] relates to BRCA1/2 mutation carriers with recurrent ovarian cancer. The note with it: phase II; cited from earlier work.
Assay [4] has as its system BRCA-negative patients with advanced-stage triple-negative breast cancer. The note with it: 15 BRCA-negative patients, advanced-stage TNBC; cited from earlier work.
The next assay relates to HCC1937 cells. The assay can be described thus: Apoptosis analysis. In kind it is cell-based, human. Particulars: olaparib plus TTK inhibitor, 48 hours. On the procedure:
FIGS. 14A-B. TTK inhibitor enhances apoptosis induced by PARP inhibitor. (A) TTK expression levels in basal-like or luminal breast cancer cell lines and immortal human mammalian epithelial cells. Cell lysates were harvested from indicated cell lines and subjected to Western blot analysis. (B) HCC1937 cells were treated with olaparib, or combined with TTK inhibitor AZ3146 for 48 hours and subjected to apoptosis analysis. Each value represents the mean±SD from three independent experiments.

Consider `CCNC(=O)c1noc(-c2cc(C(C)C)c(O)cc2O)c1-c1ccc(CN2CCOCC2)cc1` [AUY922], for which the “synergistic effect on PARP inhibitor treatment” value in the assay with HCC1937 (MTT) is “synergistic effect”. Further, in the assay on HCC1937 (combinations with PARP inhibitors), the “synergy compared with vorinostat combinations” value is “relatively higher synergy”.

Regarding `O=C(c1cc(Cc2n[nH]c(=O)c3ccccc23)ccc1F)N1CCN(C(=O)C2CC2)CC1` [olaparib], in the assay on MCF-10A cells (MCF-10A double knockdown cells), the “sensitization by BRCA1-PTEN double knockdown” value is “did not sensitize cells”. For the same compound, the “cellular sensitivity of BRCA1-, RAD51- and BRIT1-deficient cells” value in the assay on MCF-10A cells (MCF-10A knockdown vs control cells, 10-15 days) is “greatly increased cellular sensitivity”. Moreover, in the assay on MCF-10A cells (MCF-10A single knockdown cells), the “sensitization by BRCA1 or PTEN deficiency” value is listed as “sensitized cells”. Moreover, in assay [1], the “sensitivity of cell lines with the HRD gene signature compared with cell lines with intact HR repair” value was “more sensitive”. Besides, in the assay with BRCA mutation carriers, the “BRCA mutation carriers that did not respond” value is listed as “more than 35%”. Further, in assay [2], the response rate was 41%. Also, in assay [3], the objective response rate is given as 33%. Also, the “complete or partial responses” value in assay [4] is listed as “no complete or partial responses”.

Consider `CNCc1ccc(-c2[nH]c3cc(F)cc4c3c2CCNC4=O)cc1` [rucaparib], for which the “sensitivity of cell lines with the HRD gene signature compared with cell lines with intact HR repair” value in assay [1] was “more sensitive”.

For AZ3146, in the assay on HCC1937 cells, the apoptosis entry was “enhanced olaparib-induced apoptosis”.

Values taken from patent US9850542B2, “Gene signature to predict homologous recombination (HR) deficient cancer” (Board of Regents, The University of Texas System, priority 2013, dated 2017).
